The results in this text go back to ChEMBL document CHEMBL1143051, “Novel cationic lipophilic peptides for oligodeoxynucleotide delivery” (Bioorg Med Chem, 2007).

Square brackets hold non-standard residues; d marks the D form. Peptide text beside a SMILES is read from it. ξ: configuration not given here. ξGly(decyl) = CCCCCCCCCCC(N)C(=O)O

The nature of data set [1]: Apparent permeability across human Caco-2 cells. Type of data set: ADME, cell-based. Background: Caco-2 monolayers are a common model of the intestinal barrier.
Data set [2] can be described thus: Inhibition of IL2 production in antigen stimulated mouse 2B4.11 T hybridoma cells at 5 uM. Type of data set: functional.
Data set [3] can be described thus: Inhibition of IL2 production in antigen stimulated mouse 2B4.11 T hybridoma cells at 10 uM. Type of data set: functional.
Data set [4] is described as follows: Inhibition of IL2 production in antigen stimulated mouse 2B4.11 T hybridoma cells at 25 uM. Type of data set: functional.
Data set [5] in a line: Effect on transfection efficacy in human D407 cells assessed as reduction of hVEGF expression after 24 hrs by ELISA. Type of data set: functional. A general note: In an ELISA, binding on a coated surface is turned into a signal by an enzyme label.
Data set [6] can be described thus: Effect on transfection efficacy in human D407 cells assessed as reduction of hVEGF expression after 48 hrs by ELISA. Type of data set: functional.
The nature of data set [7]: Toxicity assessed as induction of haemolysis in rat erythrocytes at 1 mM after 30 mins. Type of data set: cell-based, Erythrocyte. The following applies: read-out: Activity.
A further data set relates to T-cell. Description: Inhibition of activation of antigen stimulated mouse 2B4.11 T cells assessed as IL2 production. Type of data set: functional, cell-based.

As to `OC[C@@H](O)[C@@H](O)[C@H](O)[C@H](O)CO` [MANNITOL], in data set [1], the Papp (in general, a coefficient for how fast a substance crosses the barrier) turned out to be 0.555 ×10⁻⁶ cm/s.

Take `CCCCCCCCCCC(N)C(=O)NCC(=O)N[C@@H](CC(C)C)C(=O)N[C@@H](CCCNC(=N)N)C(=O)N[C@H](C(=O)N[C@@H](CC(C)C)C(=O)N[C@@H](CC(C)C)C(=O)N[C@@H](CC(C)C)C(=O)N[C@@H](CCCCN)C(=O)N[C@H](C(=O)O)C(C)C)[C@@H](C)CC` (stereo partly specified) (H-[ξGly(decyl)]GLRILLLKV-OH): the Inhibition (in general, the relative decrease from the control value, in per cent) in data set [2] amounted to 105.7%; in data set [3], 48.13%; in data set [4] it was 81.17%; in data set [5], 70%; in data set [6], 76%. In addition, in data set [1], the Papp was found to be 0.11 ×10⁻⁶ cm/s. In addition, the hemolysis at 0.5 h, 1000 µM in data set [7] was < 2%. In addition, in the data set on T-cell, the Activity entry was “Dose-dependent effect”.

For the molecule `CC[C@H](C)[C@H](NC(=O)[C@H](CCCNC(=N)N)NC(=O)[C@H](CC(C)C)NC(=O)CN)C(=O)N[C@@H](CC(C)C)C(=O)N[C@@H](CC(C)C)C(=O)N[C@@H](CC(C)C)C(=O)N[C@@H](CCCCN)C(=O)N[C@H](C(=O)O)C(C)C` (H-GLRILLLKV-OH), the Inhibition in data set [2] was determined as 107%; in data set [3], 102.53%; in data set [4], 74.52%; in data set [5] it was 55%; in data set [6], 63%. The apparent permeability coefficient (Papp) in data set [1] is 0.042 ×10⁻⁶ cm/s. Also, the hemolysis at 0.5 h, 1000 µM in data set [7] is < 2%.
